The values that follow come from patent US11660354B2, “Inhibitor-functionalized ultrasmall nanoparticles and methods thereof” (Memorial Sloan Kettering Cancer Center, priority 2016, dated 2023).

In data set [1] the test system is PC3 cells. Nature of the data set: Radiolabeled particle cell binding and internalization, PC3 cells. In kind it is cell-based. The protocol: (§1) Blocking studies show specific uptake.
(§2) PSMAi-(^64Cu)NOTA-C′ dots and GRP-(^177Lu)DOTA-C′ dots were examined for cell binding with LNCaP and PC3 cells (FIGS. 11A-11C). Cells were incubated with 100,000 CPM of PD10 purified radiolabeled C′ dots. PMPA and bombesin were used for blocking PSMAi and GRP radiolabeled C′ dots. After 3 PBS washes, the membrane surface-bound fraction was removed with 40 mM NaOAc (pH=4.5, 0.9% NaCl, 0.2% BSA), after which the cells were dissolved in NaOH to obtain internalized counts.

The format of data set [2] is in vitro ADME. The settings on record: serum. The protocol: PSMAi-NOTA-C′ dots (21 μmol) were radiolabeled with ^64Cu or ^177Lu (210 pmol) in NH4Ac buffer pH 5.5 at 70° C. for 20 min. The average radiolabeling yields were 98.6% and 99.3% radiochemical purities of 98% and 99.9%. Stabilities of the radiolabeled particle complexes were examined in water, saline, and serum (Table 1).
In the final step, PSMA and GRPr targeted C′ dots can be radiolabeled with ^64Cu and ^67Ga at various concentrations (˜0.3-300 nmol) in acetate buffer (pH 5.5) for 30 min and at 70° C. to obtain PSMAi-(^64Cu)NOTA-C′ dots and GRP-(^67Ga)DOTA-C′ dots. For ^89Zr labeling, as-synthesized PSMAi-DFO-C′ dot can be incubated with ^89Zr-oxalate at 37° C. for 30 min (pH 7-8). Radiolabeled PSMA-targeting C′ dots and GRPr-targeting C′ dots can be purified using PD-10 (G-25) size exclusion chromatography. For radiolabeling experiments, specific radiolabeling parameters can be determined for optimal radiolabeling efficiencies and high specific activities. Labeling can begin with the conditions shown to produce the highest specific activity. Quality control includes ITLC, HPLC, and cell-based receptor binding bioassays. Stability of radiolabeled C′ dots can be determined in H2O, PBS at 25° C. and mouse and human serum at 37° C.

Data set [3] relates to LNCaP cells. Briefly: Radiolabeled particle cell binding and internalization, LNCaP cells. In kind it is cell-based. The protocol:
as §1, §2

Data set [4] has as its system TRAMP-C2 cell line. Briefly: Binding of radiolabeled C′ dots to the TRAMP-C2 cell line. In kind it is cell-based, mouse. The text has this: The advantages of the TRAMP model are the development of disease that mirrors human pathology in an immune competent mouse, coupled with the formation of LN and bone metastases. Disadvantages are that the biology/physiology of mouse prostate is not the same as the human organ. For example, the mouse prostate is not a single organ, as in human, but has 4 lobes, different from the single organ human prostate. The advantage of the TRAMP model is the ability to image metastatic disease and nodal metastases with PSMA- and GRPr-targeting C′ dots using PET and fluorescence-based multiplexing. Binding studies of PSMAi-(^67Ga)NOTA-C′ dots and GRP-(^177Lu)DOTA-C′ dots to the TRAMP-C2 cell line were examined (FIG. 17). The TRAMP-C2 cell line was derived from TRAMP prostate tumors. Both the PSMAi-(^67Ga)NOTA-C′ dots and GRP-(^177Lu)DOTA-C′ dots bound the TRAMP-C2 cell line. […] This model enables proof-of-concept studies to be conducted for multiplexed detection of nodal metastases using a cocktail of PSMAi-PEG-Cy5.5-C′ dots and GRP-PEG-CW800-C′ dots.

For data set [5], the system named is PC lesion and metastatic LNs. Nature of the data set: Clinical PET with ^68Ga-RM2 and ^68Ga-PSMA-11 in prostate cancer patients. The data set is classed as in vivo. The following applies: patient with biochemical recurrence of PC. The text has this:
FIGS. 20A-20B show a patient with biochemical recurrence of PC imaged with PSMA ligand ^68Ga-PSMA-11 and GRPr ligand ^68Ga-RM2. ^68Ga-PSMA-11 scan acquired 4 weeks after the ^68Ga-RM2 scan. Retroperitoneal LN metastases are better visualized on the GRPr scan than on the PSMA scan.

Where two headings read alike, the source gives them in different places. Square brackets hold non-standard residues; d marks the D form. Sta = CC(C)C[C@H](N)[C@@H](O)CC(=O)O; Ahx = NCCCCCC(=O)O

Consider “GRP-(^177Lu)DOTA-C′ dots: GRP antagonist-DOTA peptide-functionalized C′ dots radiolabeled with ^177Lu ({Ac-Cys-Ahx-Ahx-K(DOTA)-4‑amino‑1‑carboxymethyl‑piperidine}-HQWAVGH[Sta]L-NH2; also: Cys thiol bound to maleimide-PEG-silane on silica nanoparticle, DOTA labelled with 177Lu)”, for which the “cell binding, uptake and internalization” value in data set [1] is “bound PC3 cells, but were not efficiently internalized”; in data set [3], “low levels of binding”. For the same compound, in data set [1] (blocking with bombesin), the “binding in the presence of bombesin” value is reported as “blocked”. Further, the “percent radiolabeled C′ dot stability” value in data set [2] (human, 1 h) came out at 99.9%; in data set [2] (human, 4 h), 99.9%; in data set [2] (human, 24 h) it was 99.8%; in data set [2] (mouse, 1 h), 99.9%; in data set [2] (mouse, 4 h) it was 99.8%; in data set [2] (mouse, 24 h), 98.6%. In addition, the “binding to TRAMP-C2 cell line with RM2 peptide” value in data set [4] (addition of an excess of GRPr targeting RM2 peptide) is on record as “significantly reduced”. Moreover, the “binding to TRAMP-C2 cell line” value in data set [4] (alone) is reported as “bound”.
`O=C(O)CCc1ccc(O)c(CN(CCN(CC(=O)O)Cc2cc(CCC(=O)NCCCCCC(=O)NCCCC[C@H](NC(=O)N[C@@H](CCC(=O)O)C(=O)O)C(=O)O)ccc2O)CC(=O)O)c1` (68Ga complex, metal not drawn) [PSMA-11]: the normal organ uptake entry in data set [5] was “very high RES and renal uptake”.
